{"source": "patent US9682994B2", "about": "“Inhibitors of retroviral replication” (The Scripps Research Institute, priority 2011, dated 2017)", "key": {"HIV-1 pNL4-3 [1]": {"tested_on": "HIV-1 pNL4-3", "assay": "Chronically HIV-1 infected HeLa-CD4 cells, viral RNA by qRT-PCR / p24", "format": "cell-based", "conditions": "Human immunodeficiency virus 1; read-out: EC50 for abrogating chronic HIV infection", "procedure": "FIG. 1G: p24 antigen quantification. Viral supernatants recovered from cells described in FIG. 1B, grown for 60 days, were assayed for their p24 antigen content using a sandwich ELISA kit. Error bars represent standard deviations.\nFirst-strand cDNA from RNA for qPCR was prepared using […]™ first-strand cDNA kit (Invitrogen), following the manufacturer's instructions, using approximately 5 μg of RNA as starting material and random hexamers as first-strand primers. Quantitative PCR was performed with an aliquot of cDNA as template, using […]® 480 SYBR Green I Master (Roche) in a 20 μL reaction according to the manufacturer's instructions. […] The primers used were as follows: […]\nSuch an early time point rules out de novo infections. […] This conclusion was further supported by the fact that treatment of cells that were chronically infected, and therefore continuously shedding the virus (without incurring new infections, due to down-regulation of CD4 from the cell surface), reduced virus production to undetectable levels (FIG. 1F). […] Results were similar when viral release from cells treated for 60 days were measured by p24 enzyme-linked immunosorbent assay (ELISA) (FIG. 1G)."}, "HeLa-CD4 cells": {"tested_on": "HeLa-CD4 cells", "assay": "MTT mitochondrial metabolic activity (cell viability)", "format": "cell-based"}, "HIV-1 pNL4-3 [2]": {"tested_on": "HIV-1 pNL4-3", "assay": "Acute HIV-1 infection, HeLa-CD4-LTR-LacZ reporter CPRG assay", "format": "cell-based", "procedure": "Forty-eight hours post infection a quantitative chlorophenol red-β-D-galactopyranoside (CPRG) assay was performed.\nTwenty-four hours later HIV-1 pNL4-3 was added to the cells of both experiment sets (MOI>>10) in the presence of testing compound or DMSO control. CPRG assay performed 48 h later.\nHeLa-CD4 cells were infected with HIV-1 pNL4-3 in the presence of the indicated compounds or DMSO. Forty hours post infection a CPRG assay was performed. […] Error bars represent standard deviation.\nP42 cells were plated at 1×10^4 cells per well of 96 well. Twenty-four hours later HIV-1 pNL4-3 was added to the wells in the presence of testing compound or DMSO control in a total volume of […] Forty hours post infection cells were disrupted in lysis buffer (60 mM Na2HPO4, 40 mM NaH2PO4, 10 mM KCl, 10 mM MgSO4, 2.5 mM EDTA, 50 mM β-mercaptoethanol, 0.125% Nonidet P-40) and a quantitative chlorophenol red-β-D-galactopyranoside (CPRG)-based (Boehringer Mannheim) assay was performed. The cell extracts were incubated in a reaction buffer (0.9 M phosphate buffer [pH 7.4], 9 mM MgCl2, 11 mM β-mercaptoethanol, 7 mM CPRG) until a red color developed (from approximately 10 min to 4 h) and measured with an LP400 (Becton Dickinson) plate reader at 572 nm. Experiments were performed in triplicate.\nTranscription of the HIV-1 provirus is regulated by both viral and cellular transcription factors. Before Tat is produced, low-level basal transcription from the viral promoter is initiated by cellular factors, such as the nuclear factor-kappa B (NF-kB), Sp1, TATA-binding protein and RNAPII. A desirable Tat inhibitor should block Tat-mediated activation of the viral promoter without affecting its basal transcription, which would result in cellular toxicity, given the shared transcription factors of the HIV promoter and cellular genes."}, "Tat": {"tested_on": "Tat", "assay": "Biotinylated compound streptavidin-bead pull-down of Tat", "format": "binding, HIV-1", "conditions": "for competition for binding of recombinant Tat to Bio-dCA: excess competitor", "procedure": "(§1) HEK293T cells were transfected with flag-tagged Tat 101 a.a. (Tat-F-101-wt), a shorter Tat version with 86 a.a. (Tat-F-86-wt), Tat 86 a.a. mutated in the basic domain (Tat-F-BRM), flag-tagged CDK11 (CDK11-F), flag-tagged 9G8 (9G8-F) and empty vector control.\nRecombinant Tat protein was incubated with Bio-dCA streptavidin-coated beads in the presence or absence of an excess of non-biotinylated dCA (represented as molar equivalent [eq.] of Bio-dCA). Raltegravir and recombinant GST-9G8 were used as a negative control competitor or as negative protein-binding control, respectively.\n(§2) DYNABEADS® MYONE™ Streptavidin T1 (12.5 μl slurry) (Invitrogen) were pre-saturated with 1.88 μl of 1 mM in DMSO of Biotin alone or Bio-dCA and incubated for 1 h at room temperature with orbital rocking, plus an additional 30 min with Biotin (0.63 μl of 1 mM in DMSO). Protein extracts (250 μg per sample) were incubated with the pre-saturated beads in lysis buffer supplemented with 0.1% BSA for 1 h at 4° C. with orbital rocking. After incubation, the beads were washed three times with lysis buffer.\nFor the pull-down of recombinant Tat (#2222 of NIH) and GST-9G8, streptavidin-agarose beads (40 μl slurry) were pre-saturated with 1.5 μl of 1 mM in DMSO, Biotin alone, or Bio-dCA and incubated for 1 h at room temperature. […] After incubation, the beads were washed three times with PBS and proteins were eluted as before."}, "CDK11 [3]": {"biological_target": "CDK11 (Homo sapiens, UniProt P21127)", "sequence (P21127 whole entry)": "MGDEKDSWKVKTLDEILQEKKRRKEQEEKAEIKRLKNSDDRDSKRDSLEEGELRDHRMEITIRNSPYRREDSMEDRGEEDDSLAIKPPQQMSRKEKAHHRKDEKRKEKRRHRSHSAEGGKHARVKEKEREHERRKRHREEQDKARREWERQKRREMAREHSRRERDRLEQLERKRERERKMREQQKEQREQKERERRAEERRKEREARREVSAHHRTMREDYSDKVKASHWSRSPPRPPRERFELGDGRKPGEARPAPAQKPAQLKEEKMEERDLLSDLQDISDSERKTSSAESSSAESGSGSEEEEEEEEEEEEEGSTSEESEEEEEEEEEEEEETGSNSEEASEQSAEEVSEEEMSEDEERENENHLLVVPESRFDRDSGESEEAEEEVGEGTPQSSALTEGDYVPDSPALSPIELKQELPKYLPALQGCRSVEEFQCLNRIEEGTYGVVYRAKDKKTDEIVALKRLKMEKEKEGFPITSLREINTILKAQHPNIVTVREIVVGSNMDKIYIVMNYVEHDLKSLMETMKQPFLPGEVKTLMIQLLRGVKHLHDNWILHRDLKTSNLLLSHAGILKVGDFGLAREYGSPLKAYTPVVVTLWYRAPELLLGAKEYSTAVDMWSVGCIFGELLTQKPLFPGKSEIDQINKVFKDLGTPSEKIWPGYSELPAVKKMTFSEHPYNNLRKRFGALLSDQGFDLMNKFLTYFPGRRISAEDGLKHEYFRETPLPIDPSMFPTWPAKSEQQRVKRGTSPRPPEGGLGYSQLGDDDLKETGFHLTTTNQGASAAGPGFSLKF", "assay": "Biotinylated compound pull-down of CDK11", "format": "binding", "parameters": "expressed in transfected cells; host or cells: HEK293T", "procedure": "as §1, §2"}, "[4]": {"biological_target": "T1, DNA-dependent protein kinase (DNA-PK) catalytic subunit (Homo sapiens, UniProt P78527)", "T1 construct": "endogenous in cells; host or cells: P42 (HeLa-CD4-LTR-LacZ) cells; HEK293T cells", "assay": "Bio-CA pull-down / mass spectrometry, DNA-PK", "format": "binding", "procedure": "FIG. 14: Bio-CA associated proteins. […] After SDS-PAGE analysis and Coomassie staining, gel slices were trypsin-digested and sent to mass spectrometry analysis.\nTo identify cellular proteins associated with CA, a biotinylated form of the compound (Bio-CA) was used. […] The Bio-CA was used to cover streptavidin-coated magnetic beads to pull down interacting proteins from either uninfected or chronically infected lysates of cells grown in the presence or absence of CA for 48 hours (FIG. 14D). The identity of the proteins pulled down under the different conditions was determined by HPLC MS/MS analysis. The proteins were identified with a greater than 95% confidence using a proprietary Scripps proteomics software package for protein identification, statistical analysis, and mass/peptide sequence correlation. The HIV proteome was added to the proteomics software search database before analysis. Many proteins were identified in uninfected untreated and in chronically untreated samples (approximately 300), however only 53 were displaced by more than 50% by the presence of CA. Of these 53 proteins, it appears that at least 2 may have a role in HIV-1 replication: DNA-dependent protein kinase catalytic subunit (DNA-PK) and helicase like transcription factor (HLTF)."}, "[5]": {"tested_on": "human umbilical vein endothelial cells (HUVECs)", "conditions": "read-out: average half maximal inhibitory concentration (IC50), anti-proliferative; cited from earlier work"}, "CMV and MLV promoters": {"tested_on": "CMV and MLV promoters", "assay": "Transcription from CMV and MLV promoters", "format": "cell-based", "description": "DNA-PK was identified as a binding partner of CA by mass spectrometry and further confirmation of this interaction was provided by performing a pull down assay (FIG. 15). Without wishing to be bound by theory, it was hypothesized that part of the mechanism by which CA inhibits HIV replication is by blocking the accrued DNA-PK phosphorylation of Sp1 mediated by Tat with a consequent reduction in both basal and Tat-mediated transcriptional activation of the HIV LTR promoter. Sp1 is thought to be essential for basal transcription and Tat-mediated activation of HIV-1."}, "RNA polymerase": {"tested_on": "RNA polymerase", "assay": "Bio-CA pull-down, RNA polymerase"}, "[6]": {"tested_on": "basic region Tat mutant (Tat-1 BRM)", "assay": "Biotinylated compound pull-down of basic region Tat mutant", "format": "binding, HIV-1", "procedure": "as §1, §2"}, "CDK11 [7]": {"biological_target": "CDK11 (Homo sapiens, UniProt Q9BWU1)", "sequence (Q9BWU1 whole entry)": "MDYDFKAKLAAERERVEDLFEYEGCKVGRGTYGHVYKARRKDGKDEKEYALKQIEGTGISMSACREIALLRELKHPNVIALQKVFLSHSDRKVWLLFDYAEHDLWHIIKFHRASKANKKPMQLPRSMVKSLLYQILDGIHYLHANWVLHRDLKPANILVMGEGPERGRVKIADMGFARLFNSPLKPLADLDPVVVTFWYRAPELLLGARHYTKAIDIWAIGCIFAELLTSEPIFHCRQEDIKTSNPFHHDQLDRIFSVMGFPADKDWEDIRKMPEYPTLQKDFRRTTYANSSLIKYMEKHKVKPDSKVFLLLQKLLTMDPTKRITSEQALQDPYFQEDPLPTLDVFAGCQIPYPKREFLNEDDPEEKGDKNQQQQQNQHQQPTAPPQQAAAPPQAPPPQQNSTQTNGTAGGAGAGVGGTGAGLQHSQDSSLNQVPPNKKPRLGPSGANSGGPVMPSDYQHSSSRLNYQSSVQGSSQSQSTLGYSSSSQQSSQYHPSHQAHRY", "conditions": "cited from earlier work"}, "Sp1": {"biological_target": "Sp1 (Homo sapiens, UniProt P08047)", "sequence (P08047 whole entry)": "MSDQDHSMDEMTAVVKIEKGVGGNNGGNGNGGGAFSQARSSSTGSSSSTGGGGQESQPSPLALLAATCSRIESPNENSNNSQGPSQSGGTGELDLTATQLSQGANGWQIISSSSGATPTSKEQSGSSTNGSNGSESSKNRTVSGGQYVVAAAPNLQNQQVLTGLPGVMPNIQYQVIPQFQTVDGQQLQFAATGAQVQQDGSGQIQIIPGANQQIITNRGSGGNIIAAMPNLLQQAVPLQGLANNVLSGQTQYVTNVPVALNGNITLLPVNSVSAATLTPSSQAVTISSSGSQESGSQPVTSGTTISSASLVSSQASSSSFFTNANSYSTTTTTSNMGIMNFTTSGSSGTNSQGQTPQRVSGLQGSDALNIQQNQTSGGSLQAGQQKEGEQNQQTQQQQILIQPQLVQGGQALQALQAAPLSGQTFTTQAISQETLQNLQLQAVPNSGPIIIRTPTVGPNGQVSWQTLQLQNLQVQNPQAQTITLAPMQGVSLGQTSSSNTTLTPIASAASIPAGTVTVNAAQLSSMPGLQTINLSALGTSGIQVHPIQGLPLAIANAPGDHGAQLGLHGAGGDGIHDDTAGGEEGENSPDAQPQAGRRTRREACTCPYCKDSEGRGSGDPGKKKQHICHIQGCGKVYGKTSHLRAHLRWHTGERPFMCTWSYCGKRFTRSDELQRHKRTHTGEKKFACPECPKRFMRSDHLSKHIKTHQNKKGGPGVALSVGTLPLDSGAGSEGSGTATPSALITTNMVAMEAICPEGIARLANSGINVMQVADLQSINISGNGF", "assay": "Bio-CA pull-down, Sp1", "quoted_text": "HEK293T cells were transfected with wt-Tat101-flag, vvtTat86-flag, Tat86mutant-TAR domain, CDK11-flag or 9G8-flag as negative control. Forty hours later, protein extracts were incubated with DYNABEADS® MYONE™ Streptavidin T1 coated with either biotin or Biotinylated-CA. Pulled down proteins analyzed by Western blot with the indicated antibodies."}, "ROCK II": {"biological_target": "ROCK II (Homo sapiens, UniProt O75116)", "sequence (O75116 whole entry)": "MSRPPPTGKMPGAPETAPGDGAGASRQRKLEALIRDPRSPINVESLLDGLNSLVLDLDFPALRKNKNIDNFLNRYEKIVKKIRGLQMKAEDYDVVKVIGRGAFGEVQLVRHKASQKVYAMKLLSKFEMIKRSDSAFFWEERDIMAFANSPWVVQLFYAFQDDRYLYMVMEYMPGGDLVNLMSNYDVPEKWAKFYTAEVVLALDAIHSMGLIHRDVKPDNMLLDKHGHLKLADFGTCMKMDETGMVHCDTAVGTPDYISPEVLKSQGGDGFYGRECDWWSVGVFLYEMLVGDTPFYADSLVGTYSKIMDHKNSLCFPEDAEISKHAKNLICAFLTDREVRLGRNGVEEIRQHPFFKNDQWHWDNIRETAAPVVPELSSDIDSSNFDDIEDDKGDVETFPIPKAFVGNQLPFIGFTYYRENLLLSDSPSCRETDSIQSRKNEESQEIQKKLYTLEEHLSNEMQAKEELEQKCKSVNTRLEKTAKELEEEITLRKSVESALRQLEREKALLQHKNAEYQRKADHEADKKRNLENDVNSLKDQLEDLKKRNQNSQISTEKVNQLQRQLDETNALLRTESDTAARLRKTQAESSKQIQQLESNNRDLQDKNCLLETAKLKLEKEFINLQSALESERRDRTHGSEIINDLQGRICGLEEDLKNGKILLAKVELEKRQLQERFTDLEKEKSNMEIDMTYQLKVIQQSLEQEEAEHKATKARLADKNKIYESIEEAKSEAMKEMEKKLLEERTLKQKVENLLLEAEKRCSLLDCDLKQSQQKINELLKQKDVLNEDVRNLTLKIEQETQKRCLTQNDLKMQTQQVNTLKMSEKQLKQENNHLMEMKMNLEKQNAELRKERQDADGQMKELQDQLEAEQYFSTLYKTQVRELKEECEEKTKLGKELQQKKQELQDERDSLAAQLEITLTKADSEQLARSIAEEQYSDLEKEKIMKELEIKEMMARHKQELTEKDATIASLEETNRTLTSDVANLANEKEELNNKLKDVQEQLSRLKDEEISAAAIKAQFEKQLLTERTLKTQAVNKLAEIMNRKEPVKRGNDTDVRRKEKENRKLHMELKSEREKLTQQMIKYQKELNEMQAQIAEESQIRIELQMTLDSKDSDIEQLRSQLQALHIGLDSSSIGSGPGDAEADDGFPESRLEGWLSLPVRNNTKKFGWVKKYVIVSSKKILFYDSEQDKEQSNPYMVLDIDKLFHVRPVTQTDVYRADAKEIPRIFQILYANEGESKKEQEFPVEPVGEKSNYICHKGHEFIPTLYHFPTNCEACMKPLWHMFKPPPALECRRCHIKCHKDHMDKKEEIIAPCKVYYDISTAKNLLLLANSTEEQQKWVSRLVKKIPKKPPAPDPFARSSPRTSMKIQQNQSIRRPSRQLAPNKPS", "conditions": "cited from earlier work"}, "CDK8": {"biological_target": "CDK8 (Homo sapiens, UniProt P49336)", "sequence (P49336 whole entry)": "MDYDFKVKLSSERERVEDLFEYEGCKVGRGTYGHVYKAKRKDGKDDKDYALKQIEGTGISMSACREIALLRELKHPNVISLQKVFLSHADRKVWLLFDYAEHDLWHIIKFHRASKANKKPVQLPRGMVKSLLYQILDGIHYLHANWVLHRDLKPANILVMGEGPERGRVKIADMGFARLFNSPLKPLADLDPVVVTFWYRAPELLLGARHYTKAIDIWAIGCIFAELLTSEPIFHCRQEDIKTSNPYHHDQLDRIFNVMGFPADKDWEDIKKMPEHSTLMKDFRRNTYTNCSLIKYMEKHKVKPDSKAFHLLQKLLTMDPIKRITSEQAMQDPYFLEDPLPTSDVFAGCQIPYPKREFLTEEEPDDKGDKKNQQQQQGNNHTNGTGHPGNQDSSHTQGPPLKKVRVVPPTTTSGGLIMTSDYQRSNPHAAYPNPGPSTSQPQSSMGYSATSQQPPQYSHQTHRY", "conditions": "cited from earlier work"}, "HIV-1 pNL43": {"tested_on": "HIV-1 pNL43", "assay": "HIV-1 replication in PHA/IL-2 stimulated human PBMCs, p24 ELISA", "format": "cell-based", "conditions": "p24 ELISA, 5 days post infection", "procedure": "Freshly isolated uninfected human PBMCs were stimulated with PHA for two days, washed, and grown from then on in IL-2 alone. […] Antigen p24 was measured 5 days post infection using a sandwich ELISA kit.\nTo isolate PBMCs, 24 ml of total blood diluted two fold in RPMI or PBS were carefully layered over 12 ml of Ficoll-paque and centrifuged at 2000 rpm for 20 min (brakes off). Resultant layers are approximately from top to bottom: plasma-platelets-PBMC-Ficoll-red blood cells (with granulocytes). Most of the plasma was pipetted off and discarded. The buffy coat with PBMC's was carefully removed from 3 large (50 ml) tubes and transferred to a new 50 ml tube. The remaining Ficoll and red blood cells were discarded in closed tubes. Enough PBS was added to the PBMCs to make up 50 ml and centrifuged at 1200 rpm for 10 min, brakes on. The supernatant was decanted and the pellet was loosened and washed twice with PBS. Washed pellet was recovered in 30 ml of RPMI 1640 supplemented with 10% serum, 1% Penicillin-streptomycin and mixed well. PBMCs were counted and plated at 1×10^6 cells/ml. To activate the PBMCs, PHA (phytohaemagglutinin) was added at 3 μg/ml. Two to three days later add Interleukin 2 (IL2) at 3×10^−3 μg/ml.\nPHA activated PBMCs were centrifuged and recovered at 6×10^6 cells in 3 ml complete RPMI. Then 3 ml of viral supernatant was added and incubated for 4 h at 37° C. After this period, cells were centrifuged, washed 3 times with PBS and recovered in 3 ml complete RPMI. PBMCs were plated at 0.5 ml per well in a 6-well plate, and 0.5 ml media with DMSO control or anti-viral control at 2× final concentration was added. IL-2 was added at 3×10^−3 μg/ml. Supernatant was recovered for p24 assay every 3-4 days post infection. Cells were split at 1×10^6 cell per ml every 5-7 days.\nHIV-1 transcription is intimately linked to T-cell activation due to shared motifs between the HIV-LTR and the regulatory regions in induced genes, namely NF-κB. A large variety of T cell stimuli activate NF-κB, including PHA, IL-2 and tumor necrosis factor alpha (TNF-α)."}}}
{"smiles": "Cc1cn([C@H]2C[C@H](N=[N+]=[N-])[C@@H](CO)O2)c(=O)[nH]c1=O", "note": "[AZT, zidovudine, reference compound]", "values": [{"measurement": "EC50", "setting": "HIV-1 pNL4-3 [1]", "value": 5.2, "unit": "nM"}]}
{"smiles": "CN(C)[C@H]1C[C@@]23CC[C@@]4(O2)C(=CC[C@]2(C)C(c5ccc6ccncc6c5)=CC[C@H]24)C=C3[C@@H](OC(=O)CCCCCNC(=O)CCCC[C@@H]2SC[C@@H]3NC(=O)N[C@@H]32)[C@@H]1O.O=C(O)C(F)(F)F.O=C(O)C(F)(F)F", "note": "[Bio-CA]", "values": [{"measurement": "viability of the cells", "setting": "HeLa-CD4 cells", "value": "did not compromise the viability of the cells"}, {"measurement": "EC50 relative to CA", "setting": "HIV-1 pNL4-3 [2]", "value": 10, "unit": "fold"}]}
{"smiles": "CN(C)C1CC23CCC4(O2)C(=CCC2(C)C(c5ccc6ccncc6c5)CCC42)C=C3C(O)C1O", "note": "(stereo not shown) [CA, Cortistatin A]", "values": [{"measurement": "competition for binding of recombinant Tat to Bio-dCA", "setting": "Tat", "value": "competed"}, {"measurement": "interaction with Tat (pull-down)", "setting": "Tat; flag-tagged Tat expressed in cells or recombinant Tat", "value": "interacts"}, {"measurement": "interaction with CDK11 (pull-down)", "setting": "CDK11 [3]", "value": "did not interact"}, {"measurement": "interaction with DNA-PK", "setting": "[4]", "value": "seems to interact"}, {"measurement": "IC50", "setting": "[5]", "value": 350, "unit": "nM"}, {"measurement": "transcription activity from CMV and MLV promoters", "setting": "CMV and MLV promoters", "value": "reduces the transcription activity"}, {"measurement": "pull down of RNA polymerase", "setting": "RNA polymerase", "value": "shown to pull down"}, {"measurement": "interaction with TAR-nonbinding basic region Tat mutant (pull-down)", "setting": "[6]", "value": "not"}, {"measurement": "EC50 for the inhibition of HIV activity", "setting": "HIV-1 pNL4-3 [2]", "value": "picomolar to low nanomolar range"}, {"measurement": "Kd", "setting": "CDK11 [7]", "value": "10 ± 2", "unit": "nM"}, {"measurement": "interaction with Sp1", "setting": "Sp1", "value": "not observed"}, {"measurement": "Kd", "setting": "ROCK II", "value": "220 ± 2", "unit": "nM"}, {"measurement": "Kd", "setting": "CDK8", "value": "17 ± 2", "unit": "nM"}]}
{"smiles": "Cc1nnc(C(=O)NC(C)(C)c2nc(C(=O)NCc3ccc(F)cc3)c(O)c(=O)n2C)o1", "note": "[Raltegravir, reference compound]", "values": [{"measurement": "competition for binding of recombinant Tat to Bio-dCA", "setting": "Tat", "value": "not"}, {"measurement": "EC50, HIV-1 replication in primary cells (PBMCs)", "setting": "HIV-1 pNL43", "value": "similar"}]}
{"smiles": "CC(C)(C)NC(=O)[C@@H]1C[C@@H]2CCCC[C@@H]2CN1C[C@@H](O)[C@H](Cc1ccccc1)NC(=O)[C@H](CC(N)=O)NC(=O)c1ccc2ccccc2n1", "note": "[saquinavir, reference compound]", "values": [{"measurement": "EC50, HIV-1 replication in primary cells (PBMCs)", "setting": "HIV-1 pNL43", "value": "similar"}]}
